Data reported in patent US8999359B2, “Composition that prevents damage to trees by harmful insects and a prevention method thereof” (Syngenta Crop Protection, Inc., priority 2004, dated 2015).

Columns and labels:
Format in all cases: in vivo
[1] = test system: Adult Japanese Pine Sawyer; test: Insecticidal activity test on Japanese pine sawyer (sprayed pine feed trees)
Text: 1. Insecticidal Activity Test on Japanese Pine Sawyer
After uniformly spraying pine feed trees with spraying solutions at prescribed concentrations using a sprayer, adult Japanese pine sawyers were used in testing to investigate the progress of their mortality and degree of infestation.

Pine Caterpillar Larva = test: Insecticidal activity test on pine caterpillar larva (spray)
Text: 2. Insecticidal Activity Test on Pine Caterpillar Larva
The mortality of pine caterpillar larva was investigated after uniformly spraying pine feed trees and pine caterpillar larva with spraying solutions at prescribed concentrations using a sprayer.

Fall Webworm Larva = test: Insecticidal activity test on fall webworm larva (spray)
Text: 3. Insecticidal Activity Test on Fall Webworm Larva
The progress of the mortality of fall webworm larva was investigated after uniformly spraying feed trees (cherry) and fall webworm larva with spraying solutions at prescribed concentrations using a sprayer.

SMILES	Average infested area (cm2) ([1]; spraying solution 5 ppm)	Mortality (%) After 1 day ([1]; spraying solution 5 ppm) [%]	Mortality (%) After 3 days ([1]; spraying solution 5 ppm) [%]	Mortality (%) After 7 days ([1]; spraying solution 5 ppm) [%]	Average infested area (cm2) ([1]; spraying solution 10 ppm)	Mortality (%) After 1 day ([1]; spraying solution 10 ppm) [%]	Mortality (%) After 3 days ([1]; spraying solution 10 ppm) [%]	Mortality (%) After 7 days ([1]; spraying solution 10 ppm) [%]	Average infested area (cm2) ([1]; spraying solution 20 ppm)	Mortality (%) After 1 day ([1]; spraying solution 20 ppm) [%]	Mortality (%) After 3 days ([1]; spraying solution 20 ppm) [%]	Average infested area (cm2) ([1]; spraying solution 40 ppm)	Mortality (%) After 1 day ([1]; spraying solution 40 ppm) [%]	Mortality (%) After 1 day (Pine Caterpillar Larva; spraying solution 100 ppm) [%]	Mortality (%) After 3 days (Pine Caterpillar Larva; spraying solution 100 ppm) [%]	Mortality (%) After 7 days (Pine Caterpillar Larva; spraying solution 100 ppm) [%]	Mortality (%) After 1 day (Pine Caterpillar Larva; spraying solution 200 ppm) [%]	Mortality (%) After 3 days (Pine Caterpillar Larva; spraying solution 200 ppm) [%]	Mortality (%) After 1 day (Fall Webworm Larva; spraying solution 100 ppm) [%]	Mortality (%) After 3 days (Fall Webworm Larva; spraying solution 100 ppm) [%]	also measured
COP(=S)(OC)Oc1ccc([N+](=O)[O-])c(C)c1 [Fenitrothion, fenitrothion]	23.3	10	10	10	8.6	0	50	80	2.4	20	70	1.6	90	10	10	20	30	60	0	10	Mortality (%) After 7 days ([1]; spraying solution 20 ppm): 100%; Mortality (%) After 3 days ([1]; spraying solution 40 ppm): 100%; Mortality (%) After 7 days (Pine Caterpillar Larva; spraying solution 200 ppm): 60%; Mortality (%) After 1 day (Pine Caterpillar Larva; spraying solution 500 ppm): 80%; Mortality (%) After 3 days (Pine Caterpillar Larva; spraying solution 500 ppm): 100%; Mortality (%) After 1 day (Pine Caterpillar Larva; spraying solution 1000 ppm): 100%; Mortality (%) After 7 days (Fall Webworm Larva; spraying solution 100 ppm): 20%; Mortality (%) After 1 day (Fall Webworm Larva; spraying solution 200 ppm): 30%; Mortality (%) After 3 days (Fall Webworm Larva; spraying solution 200 ppm): 60%; Mortality (%) After 7 days (Fall Webworm Larva; spraying solution 200 ppm): 70%; Mortality (%) After 1 day (Fall Webworm Larva; spraying solution 500 ppm): 80%; Mortality (%) After 3 days (Fall Webworm Larva; spraying solution 500 ppm): 100%; Mortality (%) After 1 day (Fall Webworm Larva; spraying solution 1000 ppm): 100%
CN1COCN(Cc2cnc(Cl)s2)/C1=N\[N+](=O)[O-] [Thiamethoxam, thiamethoxam]	1.8	10	60	100	0.5	70	80	100	0.4	80	100	0.3	100	50	80	100	80	100	20	80	Mortality (%) After 1 day (Pine Caterpillar Larva; spraying solution 20 ppm): 10%; Mortality (%) After 3 days (Pine Caterpillar Larva; spraying solution 20 ppm): 40%; Mortality (%) After 7 days (Pine Caterpillar Larva; spraying solution 20 ppm): 50%; Mortality (%) After 1 day (Pine Caterpillar Larva; spraying solution 50 ppm): 20%; Mortality (%) After 3 days (Pine Caterpillar Larva; spraying solution 50 ppm): 60%; Mortality (%) After 7 days (Pine Caterpillar Larva; spraying solution 50 ppm): 80%; Mortality (%) After 1 day (Fall Webworm Larva; spraying solution 50 ppm): 0%; Mortality (%) After 3 days (Fall Webworm Larva; spraying solution 50 ppm): 30%; Mortality (%) After 7 days (Fall Webworm Larva; spraying solution 50 ppm): 50%; Mortality (%) After 7 days (Fall Webworm Larva; spraying solution 100 ppm): 80%; Mortality (%) After 1 day (Fall Webworm Larva; spraying solution 200 ppm): 30%; Mortality (%) After 3 days (Fall Webworm Larva; spraying solution 200 ppm): 90%; Mortality (%) After 7 days (Fall Webworm Larva; spraying solution 200 ppm): 100%; Mortality (%) After 1 day (Fall Webworm Larva; spraying solution 300 ppm): 80%; Mortality (%) After 3 days (Fall Webworm Larva; spraying solution 300 ppm): 100%
